Reference: patent publication EP3108883A1, “THERAPEUTIC USES OF NON-PEPTIDE INHIBITORS OF THE CALCINEURIN - NFAT SIGNALLING PATHWAY” (Fundació Institut de Recerca Biomèdica de Bellvitge, priority 2015, dated 2016)

Molecular target: CN (Homo sapiens, UniProt Q08209)
Test: In vitro CN phosphatase assay with pNPP as substrate
Format: biochemical
Conditions: ZnCl2 control at 50 µM
Protocol: CN activity towards the pNPP substrate was measured as described (McAvoy, et al., in Current Protocols in Molecular Biology. (John Wiley & Sons, Inc., 2001), vol. 92, chap. 18, pp. 18). The CN phosphatase assay kit (ENZO Life Sciences, Farmingdale, NY) was used to assess the dephosphorylation of phosphoRII peptide by CN (Mulero et al., 2009, supra.). Potential immunosuppressant CN inhibitors should compete with NFATc for binding, without blocking the general phosphatase activity of CN. As an initial screening test, the phosphatase activity of CN was analyzed using the small molecule p-nitrophenil phosphate (pNPP) as substrate (see Material and Methods). […] The ability of compounds 1-32 in inhibiting CN-NFATc signaling was evaluated in human HEK 293T cells using a luciferase gene reporter assay that includes the NFATc-dependent IL2 promoter (3[…]). After 24 hours of treatment, 50 μM of compounds 6, 9, 17, 19, 23, 25 and 29 inhibit more than 75% NFATc activity, while compounds 1, 2, 4, 8, 10, 14, and 24 inhibit 50-75% NFATc activity (Fig. 2B).

CN phosphatase activity towards pNPP: strongly inhibits enzymatic activity
Compound: [Cl-].[Cl-].[Zn+2] [ZnCl2]
